Assay [1] addresses T1, DGKα (Homo sapiens, UniProt P23743).
T1 construct: His; purchased Signal Chem D21-10BH
The assay is described as follows: In vitro DGKα inhibition assay (ADP-Glo). Conditions: His-tagged human recombinant enzyme; 0.1 nM DGKα, 50 μM ATP, 20 μM DLG; 90 minute incubation; ADP-Glo luminescence. The format is biochemical. How it is done:
(§1) The DGKα and DGKζ biochemical reactions were performed using His-tagged human recombinant enzymes (Signal Chem, DGKα, #D21-10BH; DGKζ, #D30-10H)) and DLG (Dilauroyl-sn-glycerol) lipid substrate (Signal Chem, #D430-59). ADP-Glo assay was performed using ADP-Glo™ kinase Assay kit (Promega, #V9104). The reactions were carried out in assay buffer containing 40 mM Tris, pH 7.5, 0.1% CHAPS, 0.1% Prionex, 40 mM NaCl, 5 mM MgCl2, 1 mM CaCl2, and 1 mM DTT. DGKα reactions contained 0.1 nM DGKα, 50 μM ATP, and 20 μM DLG. And DGKζ reactions contained 0.4 nM DGKζ, 30 μM ATP, and 20 μM DLG. For compound inhibition studies, 40 nL test compound in DMSO was added to wells of white polystyrene plates in 384-well (Greiner, #784075) or 1536-well format (Greiner, #782075). Compounds were added with top concentration of 2 mM with 11 point, 3-fold dilution series. Enzyme solution (contains 2× DGK enzyme concentration in 1× assay buffer) was added to the plate in 2 μL/well volume, followed by 2 μL/well of substrate solution (contains 2× concentration of ATP and DLG substrate in 1× assay buffer). Plates were then centrifuged for 1 min at 1200 RPM and sealed or lidded. For 4 μL reaction volume, test compounds were therefore diluted 100× to final top concentration of 20 μM. After 90 minute incubation, reactions were quenched by addition of 2 μL/well Promega ADP-Glo Reagent, followed by centrifugation and lidding. After 60 min incubation, 2 μL/well Promega Kinase Detection Reagent was added, plates centrifuged, and incubated for 30 min. Plates were then read using Luminescence method on BMG PHERAstar FSX plate reader. Percent inhibition was calculated and IC50s were determined using 4-parameter fit in Genedata Screener. Labcyte Echo acoustic dispenser was used for compound addition, and Formulatrix Tempest liquid handler was used for all reagent dispenses.

Assay [2] concerns the target DGKζ (Homo sapiens, UniProt Q13574). Description: In vitro DGKζ inhibition assay (ADP-Glo). The format is biochemical. Conditions: His-tagged human recombinant enzyme; 0.4 nM DGKζ, 30 μM ATP, 20 μM DLG; 90 minute incubation; ADP-Glo luminescence. The method, then:
as §1

Here are results for 19 compounds from patent US20240217989A1, “Heteroaryl Fluoroalkenes As DGK Inhibitors” (Incyte Corporation, priority 2022, published 2024).

T1 sequence (P23743 whole entry): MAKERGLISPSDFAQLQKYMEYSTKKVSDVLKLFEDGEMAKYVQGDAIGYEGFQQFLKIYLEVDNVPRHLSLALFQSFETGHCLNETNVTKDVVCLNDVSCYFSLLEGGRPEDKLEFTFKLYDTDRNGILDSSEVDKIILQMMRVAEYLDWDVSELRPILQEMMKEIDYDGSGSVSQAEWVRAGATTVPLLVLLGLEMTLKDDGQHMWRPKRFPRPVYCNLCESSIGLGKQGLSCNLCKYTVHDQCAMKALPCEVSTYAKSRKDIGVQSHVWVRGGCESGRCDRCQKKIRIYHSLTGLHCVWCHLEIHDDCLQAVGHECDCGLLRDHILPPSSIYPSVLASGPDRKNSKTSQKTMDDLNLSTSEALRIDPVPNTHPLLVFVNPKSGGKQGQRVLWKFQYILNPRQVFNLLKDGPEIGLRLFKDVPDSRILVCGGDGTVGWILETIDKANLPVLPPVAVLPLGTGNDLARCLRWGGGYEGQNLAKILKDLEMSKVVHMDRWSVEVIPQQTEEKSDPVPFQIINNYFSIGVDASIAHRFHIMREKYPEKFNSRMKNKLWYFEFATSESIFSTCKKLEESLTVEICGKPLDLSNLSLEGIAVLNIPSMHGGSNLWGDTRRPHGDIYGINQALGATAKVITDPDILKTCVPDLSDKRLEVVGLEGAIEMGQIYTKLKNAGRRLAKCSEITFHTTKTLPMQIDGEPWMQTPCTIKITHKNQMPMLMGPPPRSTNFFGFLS
DGKζ, sequence (Q13574 whole entry): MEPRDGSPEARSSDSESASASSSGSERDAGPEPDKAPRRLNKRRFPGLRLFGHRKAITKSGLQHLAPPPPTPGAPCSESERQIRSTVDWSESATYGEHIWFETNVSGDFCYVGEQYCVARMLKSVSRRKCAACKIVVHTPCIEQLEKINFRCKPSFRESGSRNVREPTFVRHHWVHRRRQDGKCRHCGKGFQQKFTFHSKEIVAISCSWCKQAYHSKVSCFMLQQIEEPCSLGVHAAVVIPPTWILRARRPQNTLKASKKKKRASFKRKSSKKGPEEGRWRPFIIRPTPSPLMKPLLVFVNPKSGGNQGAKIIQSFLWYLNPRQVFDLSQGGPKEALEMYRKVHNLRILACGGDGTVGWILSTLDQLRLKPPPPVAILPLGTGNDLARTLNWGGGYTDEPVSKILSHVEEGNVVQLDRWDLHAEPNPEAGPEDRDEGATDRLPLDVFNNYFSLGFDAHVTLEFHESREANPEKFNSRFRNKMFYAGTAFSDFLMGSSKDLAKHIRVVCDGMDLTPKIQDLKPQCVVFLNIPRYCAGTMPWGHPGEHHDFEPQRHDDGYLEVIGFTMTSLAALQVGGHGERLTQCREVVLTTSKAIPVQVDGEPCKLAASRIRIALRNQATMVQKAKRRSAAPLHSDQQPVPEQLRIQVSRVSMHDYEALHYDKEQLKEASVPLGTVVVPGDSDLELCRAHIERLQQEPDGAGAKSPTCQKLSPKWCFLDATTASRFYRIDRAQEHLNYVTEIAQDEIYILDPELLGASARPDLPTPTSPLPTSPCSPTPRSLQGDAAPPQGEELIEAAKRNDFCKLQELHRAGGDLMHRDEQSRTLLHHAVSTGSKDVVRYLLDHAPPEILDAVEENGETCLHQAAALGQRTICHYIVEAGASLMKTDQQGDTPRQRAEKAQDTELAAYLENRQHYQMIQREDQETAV

On to `COCCN1CCC2(CC1)CN(c1c(/C=C(\F)c3cccc(-c4ccnnc4)n3)ccc(Oc3ccccc3)c1C(F)(F)F)CCO2` [Example 26, (Z)-4-(6-(2-Fluoro-2-(6-(pyridazin-4-yl)pyridin-2-yl)vinyl)-3-phenoxy-2-(trifluoromethyl)phenyl)-9-(2-methoxyethyl)-1-oxa-4,9-diazaspiro[5.5]undecane], for which the IC50 in assay [1] and in assay [2] was not above 20 nM in each case.
For the compound `F/C(=C\c1ccc(Oc2ccccc2)c(C(F)(F)F)c1N1CCOC2(CCN(CC3CC3)CC2)C1)c1cccc(-c2ccnnc2)n1` [Example 27, (Z)-9-(Cyclopropylmethyl)-4-(6-(2-fluoro-2-(6-(pyridazin-4-yl)pyridin-2-yl)vinyl)-3-phenoxy-2-(trifluoromethyl)phenyl)-1-oxa-4,9-diazaspiro[5.5]undecane], the half-inhibitory concentration (IC50) in assay [1] and in assay [2] was not above 20 nM in each case.
For `F/C(=C\c1ccc(Oc2ccccc2)c(C(F)(F)F)c1N1CCCC2(CCN(CC3CC3)CC2)C1)c1nccc(-c2ccnnc2)n1` [Example 28, (Z)-9-(Cyclopropylmethyl)-2-(6-(2-fluoro-2-(4-(pyridazin-4-yl)pyrimidin-2-yl)vinyl)-3-phenoxy-2-(trifluoromethyl)phenyl)-2,9-diazaspiro[5.5]undecane], the half-maximal inhibitory concentration (IC50) in assay [1] and in assay [2] was not above 20 nM throughout.
Regarding `F/C(=C\c1ccc(Oc2ccccc2)c(C(F)(F)F)c1N1CCCC2(CCN(CC3CC3)CC2)C1)c1cncc(-c2ccnnc2)n1` [Example 29, (Z)-9-(Cyclopropylmethyl)-2-(6-(2-fluoro-2-(6-(pyridazin-4-yl)pyrazin-2-yl)vinyl)-3-phenoxy-2-(trifluoromethyl)phenyl)-2,9-diazaspiro[5.5]undecane], the IC50 in assay [1] and in assay [2] was not above 20 nM throughout.
Turning to `F/C(=C\c1ccc(Oc2ccccc2)c(C(F)(F)F)c1N1CCCC2(CCN(C3CCC3)CC2)C1)c1nccc(-c2ccnnc2)n1` [Example 30, (Z)-9-Cyclobutyl-2-(6-(2-fluoro-2-(4-(pyridazin-4-yl)pyrimidin-2-yl)vinyl)-3-phenoxy-2-(trifluoromethyl)phenyl)-2,9-diazaspiro[5.5]undecane], the IC50 in assay [1] and in assay [2] was not above 20 nM in each case.
With `COCCN1CCC2(CCCN(c3c(/C=C(\F)c4nccc(-c5ccnnc5)n4)ccc(Oc4ccccc4)c3C(F)(F)F)C2)CC1` [Example 31, (Z)-2-(6-(2-Fluoro-2-(4-(pyridazin-4-yl)pyrimidin-2-yl)vinyl)-3-phenoxy-2-(trifluoromethyl)phenyl)-9-(2-methoxyethyl)-2,9-diazaspiro[5.5]undecane], the IC50 in assay [1] and in assay [2] was not above 20 nM in each case.
For the compound `CCN1CCC2(CCCN(c3c(/C=C(\F)c4nccc(-c5ccnnc5)n4)ccc(Oc4ncccc4F)c3C(F)(F)F)C2)CC1` [Example 32, (Z)-9-Ethyl-2-(6-(2-fluoro-2-(4-(pyridazin-4-yl)pyrimidin-2-yl)vinyl)-3-((3-fluoropyridin-2-yl)oxy)-2-(trifluoromethyl)phenyl)-2,9-diazaspiro[5.5]undecane], the half-inhibitory concentration (IC50) in assay [1] and in assay [2] was not above 20 nM throughout.
As for `CCN1CCC2(CCCN(c3c(/C=C(\F)c4cccc(-c5ccnnc5)n4)ccc(Oc4ncccc4F)c3C(F)(F)F)C2)CC1` [Example 33, (Z)-9-Ethyl-2-(6-(2-fluoro-2-(6-(pyridazin-4-yl)pyridin-2-yl)vinyl)-3-((3-fluoropyridin-2-yl)oxy)-2-(trifluoromethyl)phenyl)-2,9-diazaspiro[5.5]undecane], the IC50 in assay [1] and in assay [2] was not above 20 nM throughout.
For `CCN1CCC2(CC1)CN(c1c(/C=C(\F)c3cncc(-c4ccnnc4)n3)ccc(Oc3cccc(F)c3)c1C(F)(F)F)CCO2` [Example 34, (Z)-9-Ethyl-4-(6-(2-fluoro-2-(6-(pyridazin-4-yl)pyrazin-2-yl)vinyl)-3-(3-fluorophenoxy)-2-(trifluoromethyl)phenyl)-1-oxa-4,9-diazaspiro[5.5]undecane], the IC50 in assay [1] and in assay [2] was not above 20 nM in each case.
On to `CCN1CCC2(CC1)CN(c1c(/C=C(\F)c3cncc(-c4ccnnc4)n3)ccc(Oc3ccccc3F)c1C(F)(F)F)CCO2` [Example 35, (Z)-9-Ethyl-4-(6-(2-fluoro-2-(6-(pyridazin-4-yl)pyrazin-2-yl)vinyl)-3-(2-fluorophenoxy)-2-(trifluoromethyl)phenyl)-1-oxa-4,9-diazaspiro[5.5]undecane], for which the IC50 in assay [1] and in assay [2] was not above 20 nM each time.
For the compound `F/C(=C\c1ccc(Oc2ccccc2F)c(C(F)(F)F)c1N1CCOC2(CCN(CC3CC3)CC2)C1)c1cncc(-c2ccnnc2)n1` [Example 36, (Z)-9-(Cyclopropylmethyl)-4-(6-(2-fluoro-2-(6-(pyridazin-4-yl)pyrazin-2-yl)vinyl)-3-(2-fluorophenoxy)-2-(trifluoromethyl)phenyl)-1-oxa-4,9-diazaspiro[5.5]undecane], the 50% inhibitory concentration (IC50) in assay [1] was 20 to 200 nM; in assay [2], not above 20 nM.
The matching figures for `F/C(=C\c1ccc(Oc2ccccc2F)c(C(F)(F)F)c1N1CCCC2(CCN(CC3CC3)CC2)C1)c1cncc(-c2ccnnc2)n1` [Example 37, (Z)-9-(Cyclopropylmethyl)-2-(6-(2-fluoro-2-(6-(pyridazin-4-yl)pyrazin-2-yl)vinyl)-3-(2-fluorophenoxy)-2-(trifluoromethyl)phenyl)-2,9-diazaspiro[5.5]undecane]: not above 20 nM and not above 20 nM.
Take `F/C(=C\c1ccc(Oc2ccc(F)cc2F)c(C(F)(F)F)c1N1CCCC2(CCN(CC3CC3)CC2)C1)c1cncc(-c2ccnnc2)n1` [Example 38, (Z)-9-(Cyclopropylmethyl)-2-(3-(2,4-difluorophenoxy)-6-(2-fluoro-2-(6-(pyridazin-4-yl)pyrazin-2-yl)vinyl)-2-(trifluoromethyl)phenyl)-2,9-diazaspiro[5.5]undecane]: the 50% inhibitory concentration (IC50) in assay [1] and in assay [2] was not above 20 nM each time.
Turning to `F/C(=C\c1ccc(Oc2ccccc2F)c(C(F)(F)F)c1N1CCCC2(CCN(CC3CC3)CC2)C1)c1nccc(-c2ccnnc2)n1` [Example 39, (Z)-9-(Cyclopropylmethyl)-2-(6-(2-fluoro-2-(4-(pyridazin-4-yl)pyrimidin-2-yl)vinyl)-3-(2-fluorophenoxy)-2-(trifluoromethyl)phenyl)-2,9-diazaspiro[5.5]undecane], the IC50 in assay [1] and in assay [2] was not above 20 nM throughout.
Turning to `CCN1CCC2(CCCN(c3c(/C=C(\F)c4nccc(-c5ccnnc5)n4)ccc(Oc4ccccc4F)c3C(F)(F)F)C2)CC1` [Example 40, (Z)-9-Ethyl-2-(6-(2-fluoro-2-(4-(pyridazin-4-yl)pyrimidin-2-yl)vinyl)-3-(2-fluorophenoxy)-2-(trifluoromethyl)phenyl)-2,9-diazaspiro[5.5]undecane], the IC50 in assay [1] and in assay [2] was not above 20 nM throughout.
For the compound `CCN1CCC2(CC1)CN(c1c(/C=C(\F)c3nccc(-c4ccnnc4)n3)ccc(Oc3ccccc3F)c1C(F)(F)F)CCO2` [Example 41, (Z)-9-Ethyl-4-(6-(2-fluoro-2-(4-(pyridazin-4-yl)pyrimidin-2-yl)vinyl)-3-(2-fluorophenoxy)-2-(trifluoromethyl)phenyl)-1-oxa-4,9-diazaspiro[5.5]undecane], the IC50 in assay [1] and in assay [2] was not above 20 nM each time.
For `F/C(=C\c1ccc(Oc2ccccc2F)c(C(F)(F)F)c1N1CCOC2(CCN(CC3CC3)CC2)C1)c1nccc(-c2ccnnc2)n1` [Example 42, (Z)-9-(Cyclopropylmethyl)-4-(6-(2-fluoro-2-(4-(pyridazin-4-yl)pyrimidin-2-yl)vinyl)-3-(2-fluorophenoxy)-2-(trifluoromethyl)phenyl)-1-oxa-4,9-diazaspiro[5.5]undecane], the IC50 in assay [1] and in assay [2] was not above 20 nM throughout.
As to `NC[C@@H]1CCCN(c2c(/C=C(\F)c3nccc(-c4ccnnc4)n3)ccc(Oc3ccccc3)c2C(F)(F)F)C1` [Example 43, (S,Z)-(1-(6-(2-Fluoro-2-(4-(pyridazin-4-yl)pyrimidin-2-yl)vinyl)-3-phenoxy-2-(trifluoromethyl)phenyl)piperidin-3-yl)methanamine], the IC50 in assay [1] and in assay [2] was not above 20 nM in each case.
Consider `CCN1CCC2(CCCN(c3c(/C=C(\F)c4cncc(N5CC(F)(F)C5)n4)ccc(Oc4ccccc4F)c3C(F)(F)F)C2)CC1` [Example 44, (Z)-2-(6-(2-(6-(3,3-Difluoroazetidin-1-yl)pyrazin-2-yl)-2-fluorovinyl)-3-(2-fluorophenoxy)-2-(trifluoromethyl)phenyl)-9-ethyl-2,9-diazaspiro[5.5]undecane], for which the IC50 in assay [1] and in assay [2] was not above 20 nM throughout.
